Test results reported in patent US11499978B2, “Method for measuring quality of therapeutic cell through real-time glutathione measurement” (CELL2IN, INC., priority 2017, dated 2022).

What was measured:
[1] = system: hES-MSCs; test: CFU-F assay of FreSH-Tracer-sorted hES-MSCs; format: cell-based, human
Protocol: Main factors for determining the therapeutic efficacy of hBM-MSCs, namely a colony forming unit-fibroblast (CFU-F) and a graft survival rate, were evaluated in cell culture models.
In order to test whether direct control of a GSH level in stem cells leads to change in cell functions, hES-MSCs sorted by FreSH-Tracer were treated with buthionine sulfoximine (BSO; glutathione synthesis inhibitor) and glutathione ethyl ester (GSH-EE). When GSH was decreased in cells by treating GSH^High cells with BSO (80 μM, 24 h), it was confirmed that CFU-F increased, and on the other hand, when GSH was increased by treating GSH^Low cells with GSH-EE (1 mM, 2 h), it was confirmed that CFU-F decreased (FIG. 13A). In addition, it was confirmed that, when hES-MSCs which were not sorted by FreSH-Tracer were treated with BSO or GSH-EE, PDGF-AA-induced cell migration capacity was decreased or increased, respectively (FIG. 13B).

[2] = system: T cells; test: Anti-inflammatory effect of treated hUC-MSCs on T cells; format: cell-based; conditions: for T cell differentiation capacity / T cell proliferation ability / Treg cell differentiation: hUC-MSCs treated with 1 μM ferrostatin-1 24 h, 0.2 mM GGC 2 h, 2 mM GSH-EE 2 h; for anti-inflammatory effect of the hUC-MSCs: ferrostatin-1 1 μM 24 h, GGC 0.2 mM 2 h, FIGS. 27, 28A to 28C
Protocol: The inventors observed an effect of the material on stem cells by treating each stem cells with a material for enhancing a glutathione evaluation parameter. When hUC-MSCs were subcultured in a L-AA2G-containing medium, CFU-F, migration capacity, and an anti-inflammatory effect were observed. A CFU-F assay (n=3) was performed by treating hUC-MSCs with 125 or 250 μg/mL of AA2G for three days. As shown in FIGS. 16A and 16B, it was confirmed that, when AA2G was treated, CFU-F increased. In addition, as hUC-MSCs were treated with 125 or 250 μg/mL of AA2G for three days, PDGF-AA-induced migration capacity (n=3) was analyzed. As shown in FIGS. 17A and 17B, it was confirmed that the migration capacity was increased by AA2G treatment. In addition, the reduction in T cell proliferation, the reduction in T cell differentiation, and the promotion of Treg cell differentiation were observed by treating hUC-MSCs with 125 or 250 μg/mL of AA2G for three days.
In addition, hUC-MSCs were cultured with ferrostatin-1 (0.2, 1, 2 and 4 μM) and liproxstatin-1 (0.1, 0.5, 1 and 2 μM), which control a glutathione level in cells by inhibiting lipid oxidation. […] Meanwhile, the hUC-MSCs were treated with 1 μM ferrostatin-1 for 24 hours, 0.2 mM GGC for 2 hours, and 2 mM GSH-EE for 2 hours. As a result, the reduction in T cell proliferation ability and the reduction in T cell differentiation capacity were observed, and promotion of Treg cell differentiation was observed.

[3] = system: hUC-MSCs; test: CFU-F assay of hUC-MSCs; format: cell-based, human; conditions: n=3
Protocol: (§1) The inventors observed an effect of the material on stem cells by treating each stem cells with a material for enhancing a glutathione evaluation parameter. When hUC-MSCs were subcultured in a L-AA2G-containing medium, CFU-F, migration capacity, and an anti-inflammatory effect were observed. A CFU-F assay (n=3) was performed by treating hUC-MSCs with 125 or 250 μg/mL of AA2G for three days. As shown in FIGS. 16A and 16B, it was confirmed that, when AA2G was treated, CFU-F increased. In addition, as hUC-MSCs were treated with 125 or 250 μg/mL of AA2G for three days, PDGF-AA-induced migration capacity (n=3) was analyzed. As shown in FIGS. 17A and 17B, it was confirmed that the migration capacity was increased by AA2G treatment. In addition, the reduction in T cell proliferation, the reduction in T cell differentiation, and the promotion of Treg cell differentiation were observed by treating hUC-MSCs with 125 or 250 μg/mL of AA2G for three days. […] Meanwhile, hUC-MSCs were cultured with a glutathione precursor such as γ-glutamyl cysteine (GGC, 0.1, 0.25, and 0.5 mM). A CFU-F assay (n=3) was performed by treating hUC-MSCs with each concentration of GGC for 2 hours. […] In addition, SDF1α and PDGF-AA-induced migration capacities (n=3) were analyzed for hUC-MSCs without treatment with GGC, and SDF1α and PDGF-AA-induced migration abilities (n=3) were analyzed by treating hUC-MSCs with the increasing concentrations of GGC. STI571 was used as a PDGFR kinase inhibitor. As shown in FIGS. 20A to 20C, it was confirmed that, according to an increase in GGC treatment concentration, SDF1α- and PDGF-AA-induced migration capacities were enhanced. A CFU-F assay (n=3) was performed by treating hUC-MSCs with 0.2, 1, 2, and 4 μM ferrostatin-1 and 0.1, 0.5, 1, and 2 μM liproxstatin-1 for 24 hours.

[4] = system: hUC-MSCs; test: SDF1α- and PDGF-AA-induced migration capacity of hUC-MSCs; format: cell-based, human; conditions: increasing GGC treatment concentration (0.1, 0.25 mM), n=3
Protocol: as §1, with “mM).” for “mM). A CFU-F assay (n=3) was performed by treating hUC-MSCs with each concentration of GGC for 2 hours.”, “STI571 was used as a PDGFR kinase inhibitor. As shown in FIGS. 20A to 20C, it was confirmed that, according to an increase in GGC treatment concentration, SDF1α- and PDGF-AA-induced migration capacities were enhanced. A CFU-F assay (n=3) was performed by treating hUC-MSCs with 0.2, 1, 2, and 4 μM ferrostatin-1 and 0.1, 0.5, 1, and 2 μM liproxstatin-1 for 24 hours.” left out

[5] = system: hUC-MSCs; test: Oxidative stress resistance capacity (ORC) analysis in hUC-MSCs with RSL3; format: cell-based, human; conditions: hUC-MSCs; liproxstatin-1 0, 2.5, 5 or 10 μM; RSL3 0, 0.5 or 1 μM; the higher the concentration
Protocol: GRC refers to a value obtained by real-time monitoring of FR after living cells are treated with an oxidizing agent, as calculated by dividing a value obtained by subtracting AUC of a group treated with 0.1-100 mM N-ethylmaleimide (NEM) from FR AUC of an oxidizing agent (diamide, H2O2, etc.)-treated group by a value obtained by subtracting the AUC of NEM-treated group from AUC of the untreated control, and multiplying the resulting value by 100. The FR of the NEM-treated group is a value for increasing the sensitivity of a GRC value by treating it as the blank value of the FR of the cells of interest. […] To remove the MitoFreSH-Tracer from the medium before measurement, the medium was exchanged with fresh 10 mM HEPES-containing HBSS(Hanks' Balanced Salt Solution), and a fluorescence image was obtained using a confocal imaging system, Operetta. By comparing GSH levels quantified from control cells not treated with RSL3 or control cells before treated with RSL3, the distribution of GSH expression-changed cells was calculated. Based on the point where the distribution histogram is divided into two peaks, the cells were divided into GSH^High cells (right peak) and GSH^Low cells (left peak), and then a ratio of corresponding cells was expressed as a percentage (%). […]

| SMILES | CFU-F ([1]; GSH^High hES-MSCs treated with BSO 80 μM, 24 h) | CFU-F ([1]; GSH^Low hES-MSCs treated with GSH-EE 1 mM, 2 h) | T cell differentiation capacity [2] | T cell proliferation ability [2] | Treg cell differentiation [2] | CFU-F ([3]; GGC 0.1, 0.25 and 0.5 mM for 2 hours) | SDF1α- and PDGF-AA-induced migration capacities [4] | anti-inflammatory effect of the hUC-MSCs [2] | ORC: ratio of the GSH^High cells [5] | CFU-F ([3]; ferrostatin-1 0.2, 1, 2 and 4 μM, liproxstatin-1 0.1, 0.5, 1 and 2 μM, 24 hours) |
| --- | --- | --- | --- | --- | --- | --- | --- | --- | --- | --- |
| CCCCS(=N)(=O)CCC(N)C(=O)O (centres unmarked) [BSO, buthionine sulfoximine] | increased |  |  |  |  |  |  |  |  |  |
| CCOC(=O)CNC(=O)[C@H](CS)NC(=O)CC[C@H](N)C(=O)O [GSH-EE, glutathione ethyl ester] |  | decreased | reduction | reduction | promotion |  |  |  |  |  |
| N[C@@H](CCC(=O)N[C@@H](CS)C(=O)O)C(=O)O [GGC, γ-glutamyl cysteine] |  |  | reduction | reduction | promotion | increased | enhanced | no change |  |  |
| Clc1cccc(CN=C2Nc3ccccc3NC23CCNCC3)c1 [liproxstatin-1] |  |  |  |  |  |  |  | did not alter | increased | improved |
